Usually IC50 stands for the concentration needed to halve the response being measured. A word on the inhibition: it is the change of the read-out against control, counted positive when it falls.

Molecules are shown by their SMILES. Where a name gives a salt, the structure may show the parent alone. Bounds are passed on as bounds.

The assay concerns the target T1, recombinant human ALK enzyme (Homo sapiens, UniProt Q9UM73).
T1 construct: purchased Carna Biosciences 08-518
Nature of the assay: ALK WT cell free assay (TR-FRET). In kind it is biochemical. The following applies: 1 μM ATP; for IC50: 10 point dose response, read-out: IC50 value (in range); for inhibition at 1 µM: compound 1 μM, read-out: Percentage Inhibition 1 μM; for inhibition at 1 µM / inhibition at 0.1 µM: 30 min pre-incubation; for inhibition at 0.1 µM: compound 100 nM, read-out: Percentage Inhibition 100 nM. How it is done: The ALK WT cell free assay was set up to evaluate the effects of these compounds as inhibitors of ALK enzyme. The enzymatic assay was standardized using recombinant human ALK enzyme (Cat#08-518) from Carna Biosciences using Ultra Light Poly GT (Cat# TRF […]) from Perkin Elmer as a substrate. TR-FRET (Time resolved fluorescence resonance energy transfer) detection technology was used for the read out. […] The assay reaction time with the substrate was 30 minutes after which the antibody detection mix is added. The TR-FRET signal (Excitation at 340 nm, Emission at 615 nm and 665 nm) was read with 50 μs delay time on Victor^3 V fluorimeter. The data is calculated using the ratio of reading at 665 nm to 615 nm. […] Compounds were screened at 100 nM and 1 μM concentrations with pre-incubation of the enzymes with compound for 30 minutes.

T1 sequence (Q9UM73 1058-1620 limits assumed): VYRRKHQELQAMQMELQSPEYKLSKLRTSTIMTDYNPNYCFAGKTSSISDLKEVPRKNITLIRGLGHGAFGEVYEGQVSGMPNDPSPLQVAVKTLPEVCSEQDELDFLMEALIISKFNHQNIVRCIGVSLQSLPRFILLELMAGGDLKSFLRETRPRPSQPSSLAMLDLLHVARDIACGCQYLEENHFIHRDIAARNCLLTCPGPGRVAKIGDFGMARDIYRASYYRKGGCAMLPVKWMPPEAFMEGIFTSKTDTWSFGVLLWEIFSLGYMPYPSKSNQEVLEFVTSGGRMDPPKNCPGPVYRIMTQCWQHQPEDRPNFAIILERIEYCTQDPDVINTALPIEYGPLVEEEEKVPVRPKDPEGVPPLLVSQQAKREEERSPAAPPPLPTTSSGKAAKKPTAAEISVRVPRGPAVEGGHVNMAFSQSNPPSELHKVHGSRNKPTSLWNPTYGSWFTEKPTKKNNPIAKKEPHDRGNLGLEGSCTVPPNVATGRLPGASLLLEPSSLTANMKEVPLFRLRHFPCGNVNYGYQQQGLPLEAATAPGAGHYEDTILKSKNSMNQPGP

For the compound `Cn1cc(-c2cnc3[nH]cc(-c4cnn(Cc5ccccc5F)c4)c3c2)cn1` [Example-1, 3-(1-(2-fluorobenzyl)-1H-pyrazol-4-yl)-5-(1-methyl-1H-pyrazol-4-yl)-1H-pyrrolo[2,3-b]pyridine], the IC50 lay within 50 to 200 nM and the inhibition at 1 µM was found to be 95%.

For `Cn1cc(-c2cnc3[nH]cc(-c4cnn(Cc5cccc(F)c5)c4)c3c2)cn1` [Example-3], the IC50 is less than 50 nM and the inhibition at 1 µM came to 100%.

`Cn1cc(-c2cnc3[nH]cc(-c4cnn(Cc5ccc(F)cc5)c4)c3c2)cn1` [Example-4]: the IC50 was in the range of 50 to 200 nM and the inhibition at 1 µM came out at 93%.

In the case of `Cn1cc(-c2cnc3[nH]cc(-c4cnn(Cc5cccc(C#N)c5)c4)c3c2)cn1` [Example-5], the IC50 is less than 50 nM and the inhibition at 1 µM stood at 95%.

Consider `COC(=O)c1cccc(Cn2cc(-c3c[nH]c4ncc(-c5cnn(C)c5)cc34)cn2)c1` [Example-6], for which the inhibition at 1 µM worked out at 42%.

Take `Cc1nn(Cc2cc(Cl)ccc2F)cc1-c1c[nH]c2ncc(-c3cnn(C)c3)cc12` [Example-7]: the 50% inhibitory concentration (IC50) is greater than 200 nM, the inhibition at 0.1 µM amounted to 45% and the inhibition at 1 µM is 93%.

Regarding `Cn1cc(-c2cnc3[nH]cc(-c4cnn(Cc5ccccc5)c4)c3c2)cn1` [Example-8], the IC50 was in the range of 50 to 200 nM and the inhibition at 1 µM stood at 98%.

As for `Cn1cc(-c2cnc3[nH]cc(-c4cnn(Cc5ccc(C(C)(C)C)cc5)c4)c3c2)cn1` [Example-9, 3-(1-(4-(tert-butyl)benzyl)-1H-pyrazol-4-yl)-5-(1-methyl-1H-pyrazol-4-yl)-1H-pyrrolo[2,3-b]pyridine], the inhibition at 1 µM came out at 21%.

Take `Cn1cc(-c2cnc3[nH]cc(-c4cnn(Cc5cc(F)ccc5F)c4)c3c2)cn1` [Example-10]: the IC50 is less than 50 nM and the inhibition at 1 µM stood at 98%.

Turning to `Cn1cc(-c2cnc3[nH]cc(-c4cnn(Cc5cccc(C(F)(F)F)c5)c4)c3c2)cn1` [Example-11], the IC50 was greater than 200 nM and the inhibition at 1 µM is 77%.

Consider `Cn1cc(-c2cnc3[nH]cc(-c4cnn(Cc5cccc(Cl)c5)c4)c3c2)cn1` [Example-13], for which the IC50 was less than 50 nM and the inhibition at 1 µM came to 96%.

With `Cn1cc(-c2cnc3[nH]cc(-c4cnn(Cc5cc(F)cc(F)c5)c4)c3c2)cn1` [Example-14], the 50% inhibitory concentration (IC50) is less than 50 nM and the inhibition at 1 µM was 100%.

As for `Cn1cc(-c2cnc3[nH]cc(-c4cn(Cc5cccc(F)c5)nc4C(C)(C)C)c3c2)cn1` [Example-15], the inhibition at 0.1 µM was 6% and the inhibition at 1 µM amounted to 6%.

`Cn1cc(-c2cnc3[nH]cc(-c4cnn(Cc5cccc([N+](=O)[O-])c5)c4)c3c2)cn1` [Example-16, 5-(1-methyl-1H-pyrazol-4-yl)-3-(1-(3-nitrobenzyl)-1H-pyrazol-4-yl)-1H-pyrrolo[2,3-b]pyridine]: the IC50 lay within 50 to 200 nM, the inhibition at 0.1 µM came to 49% and the inhibition at 1 µM turned out to be 92%.

`Cn1cc(-c2cnc3[nH]cc(-c4cn(Cc5cccc(F)c5)nc4C(F)(F)F)c3c2)cn1` [Example-17]: the half-inhibitory concentration (IC50) was 50 to 200 nM, the inhibition at 0.1 µM was 62% and the inhibition at 1 µM was found to be 89%.

Consider `Cc1nn(Cc2cccc(F)c2)c(C)c1-c1c[nH]c2ncc(-c3cnn(C)c3)cc12` [Example-18], for which the IC50 was less than 50 nM, the inhibition at 0.1 µM came to 79% and the inhibition at 1 µM was determined as 96%.

Take `Cc1nn(Cc2cc(F)cc(F)c2)c(C)c1-c1c[nH]c2ncc(-c3cnn(C)c3)cc12` [Example-19]: the IC50 was less than 50 nM, the inhibition at 0.1 µM was 80% and the inhibition at 1 µM turned out to be 96%.

Take `Cn1cc(-c2cnc3[nH]cc(-c4cnn(CCc5ccccc5)c4)c3c2)cn1` [Example-20A]: the IC50 lay in the range of 50 to 200 nM, the inhibition at 0.1 µM was 53% and the inhibition at 1 µM turned out to be 92%.

With `Cn1cc(-c2cnc3[nH]cc(-c4cnn(Cc5cccc(O)c5)c4)c3c2)cn1` [Example-20], the IC50 was less than 50 nM, the inhibition at 0.1 µM stood at 81% and the inhibition at 1 µM turned out to be 99%.

Turning to `Cn1cc(-c2cnc3[nH]cc(-c4cnn(Cc5cccc(N)c5)c4)c3c2)cn1` [Example-21, 3-((4-(5-(1-methyl-1H-pyrazol-4-yl)-1H-pyrrolo[2,3-b]pyridin-3-yl)-1H-pyrazol-1-yl)methyl)aniline], the inhibition at 1 µM came to 90%.

In the case of `Fc1cc(F)cc(Cn2cc(-c3c[nH]c4ncc(-c5cnn(C6CCNCC6)c5)cc34)cn2)c1` [Example-22, 3-(1-(3,5-difluorobenzyl)-1H-pyrazol-4-yl)-5-(1-(piperidin-4-yl)-1H-pyrazol-4yl)-1H-pyrrolo[2,3-b]pyridinehydrochloride], the IC50 is less than 50 nM, the inhibition at 0.1 µM was determined as 97% and the inhibition at 1 µM is 100%.

In the case of `Fc1cccc(Cn2cc(-c3c[nH]c4ncc(-c5cnn(C6CCNCC6)c5)cc34)cn2)c1` [Example-23], the IC50 is less than 50 nM, the inhibition at 0.1 µM worked out at 80% and the inhibition at 1 µM came out at 94%.

In the case of `Cc1nn(Cc2cccc(F)c2)c(C)c1-c1c[nH]c2ncc(-c3cnn(C4CCNCC4)c3)cc12` [Example-24], the IC50 is less than 50 nM, the inhibition at 0.1 µM was 76% and the inhibition at 1 µM was 94%.

As to `Cc1nn(Cc2cccc(O)c2)c(C)c1-c1c[nH]c2ncc(-c3cnn(C4CCNCC4)c3)cc12` [Example-25], the IC50 was in the range of 50 to 200 nM, the inhibition at 0.1 µM stood at 70% and the inhibition at 1 µM was 95%.

`Cc1nn(Cc2cccc(F)c2)cc1-c1c[nH]c2ncc(-c3cnn(C4CCNCC4)c3)cc12` [Example-26]: the IC50 is less than 50 nM, the inhibition at 0.1 µM is 79% and the inhibition at 1 µM stood at 96%.

With `Cc1c(-c2c[nH]c3ncc(-c4cnn(C5CCNCC5)c4)cc23)cnn1Cc1cccc(F)c1` [Example-27], the IC50 was less than 50 nM, the inhibition at 0.1 µM was determined as 79% and the inhibition at 1 µM was found to be 98%.

As for `OCCn1cc(-c2cnc3[nH]cc(-c4cnn(Cc5cccc(F)c5)c4)c3c2)cn1` [Example-28, 2-(4-(3-(1-(3-fluorobenzyl)-1H-pyrazol-4-yl)-1H-pyrrolo[2,3-b]pyridin-5-yl)-1H-pyrazol-1-yl)ethanol], the IC50 is less than 50 nM, the inhibition at 0.1 µM was 96% and the inhibition at 1 µM turned out to be 98%.

In the case of `Cc1nn(Cc2cccc(F)c2)c(C)c1-c1c[nH]c2ncc(-c3cnn(CCO)c3)cc12` [Example-29], the IC50 is less than 50 nM, the inhibition at 0.1 µM is 73% and the inhibition at 1 µM amounted to 100%.

Regarding `OCCCn1cc(-c2cnc3[nH]cc(-c4cnn(Cc5cccc(F)c5)c4)c3c2)cn1` [Example-30], the IC50 was less than 50 nM, the inhibition at 0.1 µM was determined as 88% and the inhibition at 1 µM was determined as 99%.

As for `c1ccc(CCn2cc(-c3c[nH]c4ncc(-c5cnn(C6CCNCC6)c5)cc34)cn2)cc1` [Example-31, 3-(1-phenethyl-1H-pyrazol-4-yl)-5-(1-(piperidin-4-yl)-1H-pyrazol-4-yl)-1H-pyrrolo[2,3-b]pyridine], the IC50 was in the range of 50 to 200 nM, the inhibition at 0.1 µM was 59% and the inhibition at 1 µM came to 95%.

Consider `C[C@H](O)CN1CCC(n2cc(-c3cnc4[nH]cc(-c5cnn(Cc6cccc(F)c6)c5)c4c3)cn2)CC1` [Example-32, (S)-1-(4-(4-(3-(1-(3-fluorobenzyl)-1H-pyrazol-4-yl)-1H-pyrrolo[2,3-b]pyridin-5-yl)-1H-pyrazol-1-yl)piperidin-1-yl)propan-2-ol], for which the IC50 is less than 50 nM, the inhibition at 0.1 µM stood at 90% and the inhibition at 1 µM came to 99%.

The values are drawn from US20150183781A1, “5-(1H-Pyrazol-4-yl)-1H-Pyrrolo[2,3-b]Pyridine Derivatives as Kinase Inhibitors” (AURIGENE DISCOVERY TECHNOLOGIES LIMITED, priority 2012, published 2015).
